Reference: the Deep4Chem optical property database
Values belong to the compound of their own block, whether it stands above or below them.

Assay: solvent given as SMILES

Structure (SMILES): CC1=CC(C)=[N+]2C1=C(C)c1cccn1[B-]2(F)F
emission maximum (in CCCCCC): 498 nm | emission maximum (in CO): 497 nm | emission maximum (in ClCCl): 500 nm

Structure (SMILES): COc1cc(OC)c2ccc(=O)oc2c1
emission maximum (in CC(C)O): 417 nm | emission maximum (in CCO): 425 nm | emission maximum (in CCOCC): 390 nm | emission maximum (in CO): 432 nm | emission maximum (in O): 450 nm

Structure (SMILES): COC(=O)c1ccc(/C=C2\C=C(c3ccccc3)OC2=O)cc1
emission maximum (in C1COCCO1): 495 nm

Structure (SMILES): c1cnc(-c2c3ccccc3c(-c3ncccn3)c3ccccc23)nc1
emission maximum (in CCO): 440 nm | emission maximum (in ClCCl): 439 nm

Structure (SMILES): CCc1c(C)[nH]c(C2=[N+]3C(=C(C)c4c(C)c(CC)c(C)n4[B-]3(F)F)c3ccccc32)c1C
emission maximum (in C1CCOC1): 656 nm | emission maximum (in CC#N): 652 nm | emission maximum (in CCCCCC): 636 nm | emission maximum (in CO): 650 nm | emission maximum (in Cc1ccccc1): 646 nm | emission maximum (in ClCCl): 645 nm

Structure (SMILES): Oc1cc(-c2cccs2)ccc1-c1nc2ccccc2s1
emission maximum (in CCO): 408 nm | emission maximum (in ClCCl): 515 nm | emission maximum (in O): 517 nm

Structure (SMILES): CC1=CC(C)=[N+]2C1=C(c1c3ccccc3cc3ccccc13)c1c(C)cc(C)n1[B-]2(F)F
emission maximum (in CC#N): 512 nm | emission maximum (in CCCCCC): 515 nm | emission maximum (in CCO): 513 nm | emission maximum (in CN(C)C=O): 518 nm | emission maximum (in Cc1ccccc1): 521 nm | emission maximum (in ClCCl): 517 nm

Structure (SMILES): CCCCCCC1(CCCCCC)c2cc(-c3nc(-c4ccc5c(c4)C(CCCCCC)(CCCCCC)c4cc(N6c7ccccc7Oc7ccccc76)ccc4-5)nc(-c4ccc5c(c4)C(CCCCCC)(CCCCCC)c4cc(N6c7ccccc7Oc7ccccc76)ccc4-5)n3)ccc2-c2ccc(N3c4ccccc4Oc4ccccc43)cc21
emission maximum (in C1CCOC1): 616 nm | emission maximum (in CCCCCC): 485 nm | emission maximum (in Cc1ccccc1): 525 nm | emission maximum (in ClCCl): 621 nm

Structure (SMILES): CCCCCCC1(CCCCCC)c2cc(-c3nc(-c4ccc5c(c4)C(CCCCCC)(CCCCCC)c4cc(N6c7ccccc7Sc7ccccc76)ccc4-5)nc(-c4ccc5c(c4)C(CCCCCC)(CCCCCC)c4cc(N6c7ccccc7Sc7ccccc76)ccc4-5)n3)ccc2-c2ccc(N3c4ccccc4Sc4ccccc43)cc21
emission maximum (in C1CCOC1): 626 nm | emission maximum (in CCCCCC): 462 nm | emission maximum (in Cc1ccccc1): 529 nm | emission maximum (in ClCCl): 650 nm

Structure (SMILES): c1ccc2c(c1)c1ccccc1c1ncncc21
emission maximum (in ClCCl): 368 nm

Structure (SMILES): CCOC(=O)CCCCCn1c2ccccc2c(=O)c2cc3c(cc21)c(=O)c1ccccc1n3CC
emission maximum (in CO): 550 nm

Structure (SMILES): Cc1n[nH]c2c1C(c1ccc([N+](=O)[O-])cc1)C(C#N)=C(N)O2 (configuration not stated)
emission maximum (in C1CCOC1): 393 nm | emission maximum (in C1COCCO1): 390 nm | emission maximum (in CC#N): 407 nm | emission maximum (in CCCCO): 410 nm | emission maximum (in CCCO): 411 nm | emission maximum (in CCO): 414 nm | emission maximum (in CCOC(C)=O): 396 nm | emission maximum (in CN(C)C=O): 405 nm | emission maximum (in CO): 417 nm | emission maximum (in CS(C)=O): 404 nm | emission maximum (in Cc1ccccc1): 387 nm | emission maximum (in ClCCl): 402 nm

Structure (SMILES): c1ccc(-c2cc(-c3ccc4c(c3)C3(c5ccccc5-c5ccccc53)c3cc(-c5cc(-c6ccccn6)nc(-c6ccccn6)c5)ccc3-4)cc(-c3ccccn3)n2)nc1
emission maximum (in ClC(Cl)Cl): 395 nm

Structure (SMILES): Cc1cc(C)c(B(c2cc(-c3ccc(C(C)(C)C)cc3)sc2-c2sc(-c3ccc(C(C)(C)C)cc3)cc2P(=O)(c2ccccc2)c2ccccc2)c2c(C)cc(C)cc2C)c(C)c1
emission maximum (in CO): 572 nm

Structure (SMILES): CCCCCCCCCCCCCCCCN(CCCCCCCCCCCCCCCC)c1ccc(/C=C/c2cc[n+](Cc3cc(C[n+]4ccc(/C=C/c5ccc(N(CCCCCCCCCCCCCCCC)CCCCCCCCCCCCCCCC)cc5)cc4)cc(C[n+]4ccc(/C=C/c5ccc(N(CCCCCCCCCCCCCCCC)CCCCCCCCCCCCCCCC)cc5)cc4)c3)cc2)cc1
emission maximum (in C1COCCO1): 578 nm | emission maximum (in CC(C)O): 613 nm | emission maximum (in CCCCCC): 630 nm | emission maximum (in CCCCCCCCO): 589 nm | emission maximum (in CCCCO): 612 nm | emission maximum (in CCCO): 617 nm | emission maximum (in CCO): 621 nm | emission maximum (in CO): 624 nm | emission maximum (in CS(C)=O): 615 nm | emission maximum (in Cc1ccc(C)cc1): 556 nm | emission maximum (in Cc1ccccc1): 559 nm | emission maximum (in ClC(Cl)Cl): 587 nm | emission maximum (in ClCCl): 606 nm | emission maximum (in c1ccccc1): 562 nm

Structure (SMILES): N[C@@H](Cc1ccc(O)cc1)C(=O)O
emission maximum (in O): 300 nm

Structure (SMILES): C/C=C/c1ccc(OC)cc1
emission maximum (in CC#N): 330 nm | emission maximum (in CCCCCC): 328 nm

Structure (SMILES): O=P1(c2ccccc2)c2ccccc2-c2sc3ccccc3c21 (configuration not stated)
emission maximum (in C1CCCCC1): 417 nm | emission maximum (in CC#N): 427 nm | emission maximum (in CCO): 434 nm | emission maximum (in ClCCl): 428 nm

Structure (SMILES): CCC1=C(C)C2=Cc3c(I)c(I)cn3[B-](F)(F)[N+]2=C1C
emission maximum (in C1CCCCC1): 537 nm | emission maximum (in CC(C)=O): 544 nm | emission maximum (in CCO): 541.5 nm | emission maximum (in CCOC(C)=O): 539.5 nm | emission maximum (in CO): 541.5 nm | emission maximum (in OCC(F)(F)F): 538 nm

Structure (SMILES): CN1c2cc3nc4cc(F)c(F)cc4nc3cc2N(C)C1(C)C
emission maximum (in CCO): 488 nm

Structure (SMILES): CCOC(=O)CN1C(=O)C2=C(c3ccc(N4CCCCC4)cc3)N(CC(=O)OCC)C(=O)C2=C1c1ccccc1
emission maximum (in CC#N): 587 nm | emission maximum (in CS(C)=O): 601 nm | emission maximum (in Cc1ccccc1): 563 nm

Structure (SMILES): c1ccc(-c2nc(-c3ccc(-n4c5ccccc5c5ccc6c(c7ccccc7n6-c6ccccc6)c54)cc3)c3sc4ccccc4c3n2)cc1
emission maximum (in Cc1ccccc1): 465.01 nm

Structure (SMILES): Cc1ccc(C2=Cc3c4ccccc4c4ccccc4[n+]3[B-](F)(F)O2)cc1
emission maximum (in ClC(Cl)Cl): 450 nm

Structure (SMILES): COc1ccc(-c2c3cc4cc(C)sc4cc3c(-c3ccc(OC)cc3)c3cc4cc(C)sc4cc23)cc1
emission maximum (in ClCCl): 514 nm

Results, then the compound that gave them:

emission maximum (in C1CCOC1): 563 nm
Structure (SMILES): COc1cc2c(cc1-c1ccc(N(c3ccccc3)c3ccccc3)cc1)Cc1c3c(c4c(c1-2)-c1cc(OC)c(-c2ccc(N(c5ccccc5)c5ccccc5)cc2)cc1C4)C(=O)N(CCC(C)C)C3=O

emission maximum (in ClCCl): 424 nm
Structure (SMILES): C(#Cc1cc(C#Cc2ccccc2)c(C#Cc2ccccc2)c(C#Cc2ccccc2)c1C#Cc1ccccc1)c1ccccc1

emission maximum (in C1CCOC1): 366.9 nm
Structure (SMILES): CCCCCCCCCCCCCCCCn1c(-c2cc(-c3nc4ccc(C)cc4n3CCCCCCCCCCCCCCCC)cc(-c3nc4ccc(C)cc4n3CCCCCCCCCCCCCCCC)c2)nc2ccc(C)cc21

emission maximum (in CC#N): 628 nm | emission maximum (in CCCCCC): 623 nm | emission maximum (in CCOC(C)=O): 628 nm | emission maximum (in CO): 620 nm | emission maximum (in ClCCl): 630 nm
Structure (SMILES): COC1=[N+]2C(=C(c3ccccc3)c3ccc(OC)n3[B-]2(F)F)C=C1

emission maximum (in ClC(Cl)Cl): 465 nm
Structure (SMILES): CCCCCCN1C(=O)c2cccc3c(-c4cccs4)ccc(c23)C1=O

emission maximum (in ClC(Cl)Cl): 510 nm
Structure (SMILES): COc1ccc(-c2oc3cccc4c5c(-c6ccc(OC)c(OC)c6)c(=N)oc6cccc(c2c34)c65)cc1OC

emission maximum (in CC#N): 378 nm
Structure (SMILES): COc1ccc(-c2nc3c([nH]2)=C2C=C(Cl)S[C@@]2(C)[C@]2(C)SC(Cl)=CC=32)cc1

emission maximum (in ClCCl): 425 nm
Structure (SMILES): CC(C)(C)NC(=O)c1ccc2ccc3cccc4c3c2c1c1c2ccccc2c2ccccc2c41

emission maximum (in C1CCOC1): 422 nm
Structure (SMILES): CCC1(CC)c2ccccc2-c2c1c1c(c3c2C(CC)(CC)c2cc(-c4cccs4)ccc2-3)C(CC)(CC)c2cc(N(c3ccccc3)c3ccccc3)ccc2-1

emission maximum (in CO): 588 nm | emission maximum (in O): 620 nm | emission maximum (in OCCO): 594 nm | emission maximum (in [2H]O[2H]): 620 nm
Structure (SMILES): O=C(O)C1=CC(=C/C=[N+]2/c3cc(O)c(C[C@@H]4O[C@H](CO)[C@@H](O)C(O)[C@H]4O)cc3C[C@H]2C(=O)O)C=C(C(=O)O)N1 (some centres not stated)

emission maximum (in ClCCl): 487 nm
Structure (SMILES): CCCCCCn1c(=O)c2c3oc4ccccc4oc3c3c(=O)n(CCCCCC)c(=O)c3c2c1=O
